Blank lines part the entries; values can stand above or below the substance they belong to.
Tests used:
[1] = tested on: anti-idiotype antibody 6B11-CTLs (reacting cells); experiment: BrdU ELISA cell proliferation assay, 6B11-CTLs stimulated by loaded DCs; format: cell-based, human
Description: Peripheral blood was drawn from HLA-A2 healthy human subjects. After EDTA anti-coagulation treatment, peripheral blood monocytes were isolated using Ficoll lymphocyte isolation 1×10^7 monocytes/well and AIM-V culture medium (containing 5% human AB serum) was added to 1 ml. The cells were incubated at 37° C. under 5% CO2 for 2 hours. Non-adherent cells were drawn and removed as lymphocytes and stored in liquid nitrogen for further use. The adherent cells were monocytes.
The monocytes isolated from said 6-well plates were added with 2 ml AIM-V culture medium (containing 5% human AB serum)/well. Recombinant human granulocyte-macrophage colony-stimulating factor (rh GM-CSF) and recombinant human interleukin-4 (rh IL-4) were added simultaneously both to a final concentration of 1000 U/ml, for induced incubation. On Day 4, 1 ml AIM-V culture medium (containing 5% human AB serum) was supplemented, and rh GM-CSF and rh IL-4 of the same concentration as mentioned above were also supplemented. On Day 6, 1 ml AIM-V culture medium (containing 5% human AB serum) was supplemented again. At the same time, recombinant human tumor necrosis factor-α (rh TNF-α), recombinant human α-interferon (rh IFN-α) and recombinant human interleukin-6 (rh IL-6) were added, all to a final concentration of 1000 U/ml, and prostaglandin E2 (PGE2) was added to a final concentration of 1 μg/ml. Co-incubation lasted 24 hours for inducing mature DCs.
On Day 4 during incubation of DCs, the culture medium, rh GM-CSF and rh IL-4 were supplemented. At the same time, anti-idiotype antibody 6B11 was added to a final concentration of 40 μg/ml for loading. The loaded cells were stored as stimulating cells for further use.
Mature DCs induced were harvested, washed and adjusted to a concentration of 1×10^6 cells/ml. Six CDR peptides (SEQ ID NOs: 1-6, see Table 1, artificially synthesized) in a final concentration of 30 μg/ml respectively, or each peptide of 30 μg/ml together with keyhole limpet hemocyanin (KLH) of 5 μg/ml were added for loading. The loaded cells were stored as stimulating cells for further use.
The freeze-stored autologous lymphocytes were stimulated by DCs loaded with anti-idiotype antibody 6B11 (anti-Id DCs), to obtain CTLs specific to anti-idiotype antibody 6B11 (6B11-CTLs). One period consists of 7 days. On Day 3 of every period, 10 U/ml recombinant human interleukin-2 (rh IL-2) was supplemented. Finally, anti-idiotype antibody 6B11-CTLs were obtained after a one- or three-period stimulation.
All the CDR peptides of anti-idiotype antibody 6B11 (6 peptides) were synthesized artificially. The peptides were screened for Th epitope peptides by cell proliferation assay. Anti-idiotype antibody 6B11-CTLs stimulated for one period were used as reacting cells. DCs loaded with anti-idiotype antibodies and peptides respectively were used as stimulating cells. The reacting cells and the stimulating cells (in the ratio of 10:1) were co-incubated at 37° C. under 5% CO2 for 120 hours and then subject to BrdU ELISA cell proliferation assay. Each well contained 100 μl AIM-V culture medium and 1×10^5 anti-idiotype antibody 6B11-CTLs. Within the last 2 hours during stimulation, 10 μl BrdU labeling solution was added into each well and the fluid in the wells was removed. The cells were dried at 60° C. for 1 hour. 200 μl of FixDenat solution was added into each well. The reaction continued for 30 minutes at 37° C. for fixing DNA in the lymphocytes. Finally, 100 μl BrdU monoclonal antibody was added into each well for 90 minutes. The absorption value at 450 nm was read by an automatic microplate reader after substrate chromogenic reaction for detecting the proliferation of the cells. The group of DCs without loading and the group of phytohaemagglutinin (PHA) were used as negative and positive control respectively. […] Other peptides could not stimulate the proliferation of the reacting cells. […]

CD4 T cells = experiment: BrdU cell proliferation assay after magnetic bead sorting of CD4 T cells; format: cell-based, human; details: reacting cells sorted for CD4 T cells by magnetic beads
Description: All the CDR peptides of anti-idiotype antibody 6B11 (6 peptides) were synthesized artificially. The peptides were screened for Th epitope peptides by cell proliferation assay. Anti-idiotype antibody 6B11-CTLs stimulated for one period were used as reacting cells. DCs loaded with anti-idiotype antibodies and peptides respectively were used as stimulating cells. The reacting cells and the stimulating cells (in the ratio of 10:1) were co-incubated at 37° C. under 5% CO2 for 120 hours and then subject to BrdU ELISA cell proliferation assay. Each well contained 100 μl AIM-V culture medium and 1×10^5 anti-idiotype antibody 6B11-CTLs. Within the last 2 hours during stimulation, 10 μl BrdU labeling solution was added into each well and the fluid in the wells was removed. The cells were dried at 60° C. for 1 hour. 200 μl of FixDenat solution was added into each well. The reaction continued for 30 minutes at 37° C. for fixing DNA in the lymphocytes. Finally, 100 μl BrdU monoclonal antibody was added into each well for 90 minutes. The absorption value at 450 nm was read by an automatic microplate reader after substrate chromogenic reaction for detecting the proliferation of the cells. The group of DCs without loading and the group of phytohaemagglutinin (PHA) were used as negative and positive control respectively. […] Other peptides could not stimulate the proliferation of the reacting cells.
For further analyzing the proliferation of the cells, stimulating cells were blocked by anti-human MHC class II antibodies, for evaluating the effect of Th epitope peptides. Firstly, the optimal application concentration of MHC class II antibodies was determined by experiments to be 1:20 dilution (FIG. 3). […] Other peptides could not trigger cell proliferation, no matter whether MHC class II antibodies were applied or not (FIG. 4). […] The reacting cells were subject to magnetic bead sorting of CD4 T cells.

HLA-A2 = HLA-A2 (Homo sapiens, UniProt P04439, D140Y/D185E/D98H/E176V/E277Q/G131W/G231S/I119V/I121R/I166T/I218V/L300P/L318F/N151K/N90K/P208A/P217A/Q86G/Q94H/R138H/R169H/T345S); experiment: T2 cell binding assay (HLA class I expression on T2 cells, confocal microscopy); format: cell-based; details: for binding capacity in T2 cell binding assay (in words): T2 cells co-incubated with peptide 24 hours; for T2 binding: T2 cells co-incubated with peptide (0.3, 3, 30 μg/ml) 24 hours, HLA class I surface expression; for T2 binding: key: +++: high binding capacity; ++: moderate binding capacity; +: low binding capacity
Description: The peptides obtained by […] method and the VH CDR1 and VL CDR2 region peptides were subject to T2 cell binding assay. T2 cells were co-incubated with each peptides in different concentrations (0.3 μg/ml, 3 μg/ml and 30 μg/ml) for 24 hours and then co-incubated with anti-human MHC class I antibodies. The expression profile of HLA class I molecules on the surface of T2 cells was analyzed by confocal microscopy. […] They were synthesized together with the CDR peptides of the anti-idiotype antibody for screening CTL epitope peptides.

Substance: phytohaemagglutinin [PHA, reference compound]
proliferation after blocking by MHC class II antibodies ([1]; anti-human MHC class II antibodies 1:20 dilution): blocked dramatically
proliferation of reacting cells 6B11-CTLs ([1]; stimulating DCs loaded with peptide 30 μg/ml or 6B11 40 μg/ml, 120 hours, BrdU, A450): significant proliferation
proliferation of sorted CD4 T cells (CD4 T cells): could trigger the proliferation

Substance: NNKYYNTAL [predicted 9-mer from VH CDR2]
binding capacity in T2 cell binding assay (in words) (HLA-A2): high binding capacity
T2 binding (HLA-A2): +++

Further lines, results first:

binding capacity in T2 cell binding assay (in words) (HLA-A2): low binding capacity
T2 binding (HLA-A2): +
Substance: LITTKIAWY [predicted 9-mer from VH CDR3]

binding capacity in T2 cell binding assay (in words) (HLA-A2): low binding capacity
T2 binding (HLA-A2): +
Substance: IALITTKIA [predicted 9-mer from VH CDR3]

binding capacity in T2 cell binding assay (in words) (HLA-A2): low binding capacity
T2 binding (HLA-A2): +
Substance: VHSNGNTYL [predicted 9-mer from VL CDR1]

Reference: patent US8110654B2, “T cell epitope peptides of ovarian cancer anti-idiotypic antibody 6B11 and use thereof” (Peking University People;s Hospital, priority 2006, dated 2012)
